Data set [1] has as its system Meloidogyne spp. (Root-knot nematode). The data set can be described thus: Meloidogyne spp. contact activity, preventive, pouch test (cucumber). Type of data set: in vivo. The conditions noted are these: cucumber seed in pouch, test solutions at 200 ppm, galls per root system after twelve days; cis vs trans isomers. As for the experimental part:
(§1) Meloidogyne spp. (Root-knot nematode) contact activity, preventive. Pouch test. Filter papers (9 cm×4.5 cm) with a small pocket were placed into plastic pouches (12 cm×6 cm). One cucumber cv. Toshka seed was placed in the centre of the filter paper pocket of all the pouches needed for a test. The cucumber seeds in the pouches were treated with test solutions at 200 ppm by pipetting the solution directly over the cucumber seed in the filter paper pocket in the pouch. Prior to application, the compound solution was prepared at twice the concentration required and the egg suspension is prepared with FORL nutrient solution with 3000 eggs/0.5 ml. After applying all the treatments, 3000 eggs (in 0.5 ml of FORL nutrient solution) were pipetted into the pouches. The pouches were incubated in a moist chamber for twelve days and watered regularly to maintain good filter paper moisture essential for the growing cucumber root system. After this period, the filter paper containing the germinated cucumber seedling was removed from the plastic pouch to assess the number of galls caused by Meloidogyne spp. per root system. […] Meloidogyne spp. (Root-knot nematode) contact activity, preventive, drench test. Cucumber cv. Toshka seeds were sown directly into pots filled with a sandy substrate. Six days later pots were each treated with 5 ml of a WP10 suspension of the test compound at 20 ppm. Hereafter pots were inoculated with 3000 eggs of M. incognita. The trial was harvested fourteen days after trial application and inoculation. Root galling was assessed according to Zeck's gall index (Zeck, 1971).

For data set [2] the test system is unchanged. The data set can be described thus: Meloidogyne spp. contact activity, preventive, drench test (cucumber in pots). Type of data set: in vivo, M. incognita. The conditions noted are these: cis vs trans isomers. As for the experimental part:
as §1, with “Filter” for “Meloidogyne spp. (Root-knot nematode) contact activity, preventive. Pouch test. Filter”

Each structure is given as a SMILES string.

For orientation: melting point means the temperature, or range, at which the solid turns liquid. The compound `O=C(N[C@@H]1CCC1c1ccc(Cl)cc1Cl)c1ccccc1C(F)(F)F` (some centres unmarked) [57.009] showed a melting point of 126 to 128 °C. The “Nem 1 (Meloidogyne spp. contact activity, preventive, pouch test; % galling)” value in data set [1] was determined as 100%.
With `O=C(N[C@H]1CCC1c1ccc(Cl)cc1Cl)c1ccccc1C(F)(F)F` (stereo partly drawn) [57.009trans], the melting point was in the range of 147 to 148 °C. The “Nem 1 (Meloidogyne spp. contact activity, preventive, pouch test; % galling)” value in data set [1] stood at 68%. For the same compound, the “Nem 2 (Meloidogyne spp. contact activity, preventive, drench test; % galling)” value in data set [2] came to 48%.
For the compound `O=C(NC1CCC1c1ccc(Cl)cc1Cl)c1cccnc1C(F)(F)F` (centres unmarked) [57.011], the “Nem 1 (Meloidogyne spp. contact activity, preventive, pouch test; % galling)” value in data set [1] amounted to 100%. Also, in data set [2], the “Nem 2 (Meloidogyne spp. contact activity, preventive, drench test; % galling)” value was 100%.
Take `O=C(NC1CCC1c1ccc(Cl)cc1Cl)c1ncccn1` (centres unmarked) [57.012]: the “Nem 1 (Meloidogyne spp. contact activity, preventive, pouch test; % galling)” value in data set [1] stood at 98%. The “Nem 2 (Meloidogyne spp. contact activity, preventive, drench test; % galling)” value in data set [2] was 83%.
The like results for `O=C(NC1CCC1c1ccc(Cl)cc1F)c1c(F)cccc1F` (centres unmarked) [57.014] were, in that order, 93% and 100%.

For the origin of these results see patent US9414589B2, “N-cyclylamides as nematicides” (SYNGENTA PARTICIPATIONS AG, priority 2012, dated 2016).
